Literature values in patent US6653469B1, “Antibiotic purification method” (Murty Pharmaceuticals, Inc., priority 2002, dated 2003).

Tests used:
[1] = not given; remark: listed apart in the source
[2] = system: heat shock protein 90 (Hsp90)

SMILES	solubility in acetone, benzene, and ethyl acetate (acetone, benzene, ethyl acetate)	solubility in alcohols and aliphatic chlorinated solvents such as chloroform (alcohols, chloroform)	solubility in water (water)	stability to acid, base, or heat ([1]; acid, base, or heat in the presence of oxygen)	photolytic stability ([1]; aqueous and nonaqueous solutions)	binding to Hsp90 and effect on Hsp90 function [2]
COC1=C2C[C@@H](C)C[C@H](OC)[C@H](O)[C@@H](C)/C=C(\C)[C@H](OC(N)=O)[C@@H](OC)/C=C\C=C(/C)C(=O)NC(=CC1=O)C2=O [geldanamycin]	less soluble	soluble	only slightly soluble	decompose easily	undergoes photolytic degradation	
CO[C@H]1[C@@H](OC)C[C@H](C)[C@@H](OC)C2=CC(=O)C=C(NC(=O)/C(C)=C/C=C\[C@H](OC)[C@@H](OC(N)=O)/C(C)=C/[C@@H]1C)C2=O [herbimycin A]						bind specifically to Hsp90
COC1CC(C)C(OC)c2cc(O)cc(c2O)NC(=O)/C(C)=C\C=C/C(C)C(OC(N)=O)/C(C)=C\C(C)C1OC (stereo not shown) [macbecin II]						bind specifically to Hsp90
